Data on nine molecules can be found in ChEMBL document CHEMBL1201862, “PubChem BioAssay data set” (2004).

The structures appear in SMILES notation. The source made the active and inactive calls.

Assay [1] can be described thus: cytotoxicity in HeLa cells, dose response, cytotoxicity control, cell-based, 24 h, dry powder, set 2 (AID 651774). Type of assay: functional.
A short description of assay [2]: HeLa cell cytotoxicity, dose response, cytotoxicity control, 24 h, plate reader, powder samples, set 3 (AID 651864). Type of assay: functional, cell-based.
Assay [3] in a line: Mycobacterium tuberculosis BioA enzyme inhibitor Measured in Biochemical System Using Plate Reader - 2163-02_Inhibitor_Dose_DryPowder_Activity.
A short description of assay [4]: A375 melanoma cell viability loss, dose response, counter-screen for MITF modulator project, CellTiter-Glo luminescence, dry powder, set 9 (AID 651591). Type of assay: functional, cell-based. The following applies: A-375. For orientation: Counterscreens check selectivity or assay interference.
Assay [5] can be described thus: MITF Orthogonal Assay: MALME3 CTG Assay Measured in Cell-Based System Using Plate Reader - 2084-04_Inhibitor_Dose_DryPowder_Activity_Set6. Type of assay: functional. The following applies: MALME-3.
Assay [6] is described as follows: MITF Orthogonal Assay: SK-MEL-5 CTG Assay Measured in Cell-Based System Using Plate Reader - 2084-02_Inhibitor_Dose_DryPowder_Activity_Set7. Type of assay: functional.
Assay [7] can be described thus: TRPM1 promoter luciferase reporter signal decrease, dose response, MITF inhibitor project, cell-based, SK-MEL-5, dry powder, set 8 (AID 624430). Type of assay: functional.
Assay [8] is described as follows: cytotoxicity in primary human melanocytes, dose response, cytotoxicity control, cell-based, plate reader, dry powder (AID 651920). Type of assay: functional.
The nature of assay [9]: SK-MEL-5 parental cell viability reduction, dose response, orthogonal assay for MITF inhibitor project, CellTiter-Glo luminescence, dry powder, set 8 (AID 651586). Type of assay: functional, cell-based.
Assay [10] is described as follows: MALME3 melanoma cell viability reduction, dose response, orthogonal assay for MITF inhibitor project, CellTiter-Glo luminescence, dry powder, set 5 (AID 651584). Type of assay: functional, cell-based. The following applies: MALME-3. On the technique in general: In ATP-based viability assays light output follows the ATP content of the culture.
Assay [11] is described as follows: MITF: Counter assay: A375 proliferation Measured in Cell-Based System Using Plate Reader - 2084-03_Inhibitor_Dose_DryPowder_Activity_Set8. Type of assay: functional. The following applies: A-375.
The nature of assay [12]: P. falciparum 3D7-ScDHODH growth inhibitors, dose response, SYBR Green, dry powder samples (AID 1159570).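 Further: parasite growth measured after 72 hours of compound exposure.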 Type of assay: functional, cell-based.
Assay [13] can be described thus: HepG2 cell cytotoxicity, dose response, cytotoxicity control, plate reader, dry powder samples (AID 1159569).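 Further: inhibitor potency with signal falling toward the positive control level.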 Type of assay: functional, cell-based.
Assay [14] in a line: HepG2 cell cytotoxicity, dose response, cytotoxicity control, cherry-picked samples (AID 1159577). Type of assay: functional, cell-based.
A short description of assay [15]: P. falciparum Dd2 growth inhibitors, dose response, SYBR Green, cherry-picked samples (AID 1159567). Type of assay: functional, cell-based.
The nature of assay [16]: P. falciparum Dd2 growth inhibitors, dose response, SYBR Green, dry powder samples (AID 1159566).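 Further: potency for growth inhibition with lower SYBR green DNA signal.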 Type of assay: functional, cell-based.
Assay [17] is described as follows: YAP1 pathway inhibition via CTGF transcript levels, dose response, cell-based, DLD1 colon cancer, RT-qPCR, cherry-pick (AID 1053122). The following applies: Cancer cell lines. Type of assay: functional. (In general: In qPCR the cycle at which signal appears reflects the starting amount.)
Assay [18] in a line: P. falciparum ATP4 D1247Y mutant growth inhibitors, dose response, NITD609-resistant line, SYBR Green, dry powder (AID 1159571).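 Further: parasites synchronized at ring stage by sorbitol before testing.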 Type of assay: functional, cell-based.
Assay [19] in a line: Late stage assay provider results from the probe development effort to identify selective inhibitors of heat shock protein 90 (HSP90): Absorbance-based cell proliferation assay in MCF7 cells. Type of assay: functional.
Assay [20] can be described thus: Late stage assay provider results from the probe development effort to identify selective inhibitors of heat shock protein 90 (HSP90): Absorbance-based cell proliferation assay in SKBR3 cells. Type of assay: functional. The following applies: SK-BR-3.
Assay [21] deals with NS3 (Hepatitis C virus, UniProt A3EZJ3). In words: HCV NS3 helicase inhibitor potency, dose response, biochemical, fluorescence polarization, ChemBridge library (AID 743264).
The nature of assay [22]: P. falciparum Dd2 growth inhibitors, dose response, SYBR Green, dry powder samples, set 9 (AID 1159568). Type of assay: functional, cell-based.
The nature of assay [23]: cytotoxicity in HEK293 cells, dose response, cytotoxicity control, cell-based, cherry-picked samples (AID 1053185). Type of assay: functional.
The nature of assay [24]: HepG2 cell cytotoxicity, dose response, cytotoxicity control, cherry-picks, set 5 (AID 1053118). Type of assay: functional, cell-based.
Assay [25] is described as follows: HEK293 cell cytotoxicity, dose response, cytotoxicity control, cherry-picks, set 5 (AID 1053117). Type of assay: functional, cell-based.
Assay [26] in a line: Late stage assay provider results from the probe development effort to identify inhibitors of the Plasmodium falciparum M18 Aspartyl Aminopeptidase (M18AAP): radiolabel-based cell-based dose response assay to identify compounds that inhibit P. falciparum growth in RBCs, Set 2.. Type of assay: functional.

NS3, sequence (A3EZJ3 whole entry): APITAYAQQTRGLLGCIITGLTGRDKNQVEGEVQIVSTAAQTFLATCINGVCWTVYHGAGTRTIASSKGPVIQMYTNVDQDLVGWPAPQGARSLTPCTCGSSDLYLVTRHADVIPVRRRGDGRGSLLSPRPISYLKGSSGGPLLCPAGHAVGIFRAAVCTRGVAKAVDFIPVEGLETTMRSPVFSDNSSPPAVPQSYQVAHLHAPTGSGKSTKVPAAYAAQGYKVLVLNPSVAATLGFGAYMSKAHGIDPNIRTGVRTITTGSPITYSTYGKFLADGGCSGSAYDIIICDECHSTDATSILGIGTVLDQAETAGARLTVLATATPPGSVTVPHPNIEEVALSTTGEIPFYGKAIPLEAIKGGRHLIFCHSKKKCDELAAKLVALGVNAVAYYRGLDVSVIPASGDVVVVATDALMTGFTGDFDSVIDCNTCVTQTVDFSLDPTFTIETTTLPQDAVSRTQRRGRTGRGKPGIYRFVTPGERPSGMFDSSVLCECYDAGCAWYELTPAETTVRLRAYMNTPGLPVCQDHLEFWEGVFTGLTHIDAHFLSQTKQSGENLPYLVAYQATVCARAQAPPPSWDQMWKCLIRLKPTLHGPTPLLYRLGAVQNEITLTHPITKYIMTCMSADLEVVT

What is called AC50 is the midpoint of the concentration-response curve, whichever way the signal moves. With `CCC(CC)NC(=O)Cc1ccc(-c2ccccc2)cc1`, the AC50 in assay [1] is > 70 µM (inactive); in [2] it was > 160 µM (inactive).
As to `O=C(Nc1cccnc1)N1CCN(c2ccccc2)CC1`, the concentration at half-maximal activity (AC50) in assay [3] was 13 µM (active).
Turning to `Cc1ccc(NC2=CC(=O)c3ccccc3C2=O)cc1`, the AC50 is > 70 µM (inactive) in [4]; 13.5 µM (active) in [5]; 1.24 µM (active) in assay [6]; 6.58 µM (active) in assay [7]; > 70 µM (inactive) in assay [8]; 36.1 µM (active) in assay [9]. For the same molecule, the AC50 in assay [10] is 13.5 µM (active); in assay [11] it was > 70 µM (inactive).
In the case of `C[C@@H]1CN([C@H](C)CO)C(=O)c2c(c3ccccc3n2C)-c2ccccc2CO[C@@H]1CN(C)Cc1cccc(C(F)(F)F)c1`, the half-maximal activity concentration (AC50) in assay [12] is 3.38 µM (active); in assay [13], 19.6 µM (active); in assay [14], 27.2 µM (active); in assay [15], 1.87 µM (active); in assay [16] it was 1.28 µM (active); in assay [17] it was 14.3 µM (active). Also, the half-maximal activity concentration (AC50) in assay [18] is 2.09 µM (active).
The IC50 is the point on the concentration scale where inhibition reaches its midpoint. In the case of `O=c1oc2ccc(OCCc3ccc(F)cc3)cc2cc1Br`, the results for the IC50 in [19] and in assay [20] were > 100 µM (inactive) and 91.7 µM (inactive), respectively.
Regarding `O=C1NC(=O)N(c2ccccc2F)C(=O)/C1=C/c1ccc(-c2cc(C(=O)O)ccc2Cl)o1`, in assay [21], the IC50 was 35 µM (inactive).
Regarding `C[C@H](CO)N1C[C@H](C)[C@@H](CN(C)Cc2ccccc2)Oc2c(NC(=O)Cc3cn(C)c4ccccc34)cccc2C1=O`, the AC50 in assay [22] was 1.97 µM (active); in assay [23], 40.1 µM (active).
For the molecule `COc1cccc(-c2ccc3c(c2)[C@H]2[C@H](CCN2S(=O)(=O)c2cccc(OC)c2)[C@@H](CO)N3)c1`, the AC50 is > 52 µM (inactive) in assay [24] and 29.7 µM (active) in assay [25].
For `COc1ccc(CCNc2ccnc3cc(Cl)ccc23)cc1OC`, in [26], the half-inhibitory concentration (IC50) is 0.66 µM (active).
